The record followed here is ChEMBL document CHEMBL1132861, “Synthesis, radiolabelling and biological characterization of (D)-7-iodo-N-(1-phosphonoethyl)-5-aminomethylquinoxaline-2,3-dione, a glycine-binding site antagonist of NMDA receptors” (Bioorg Med Chem Lett, 2000).

SMILES strings stand for the structures.

Series [1] concerns the target Glutamate receptor ionotropic, NMDA 1 (Homo sapiens, UniProt Q05586). The experiment in a line: Compound was evaluated for its binding affinity for the glycine binding site on N-methyl-D-aspartate glutamate receptor by using [3H]MDL-105519 binding assay.
For series [2], the species on record is Mus musculus. The experiment in a line: Biodistribution of the injected compound in liver of female BALB/C mice for 5 hours. The conditions noted are these: in vivo. The format is ADME, organism-based.
A short description of series [3]: Octanol/water distribution coefficient at pH 3. The format is physicochemical.
Series [4] has as its target Glutamate [NMDA] receptor. Put plainly: Compound has been evaluated for its binding affinity towards N-methyl-D-aspartate glutamate receptor by displacing the radioligand [3H]MK-801. The format is protein-complex assay.
The species entered for series [5] is Mus musculus. Put plainly: Biodistribution of the injected compound in stomach of female BALB/C mice for 0.5 hours. The following applies: in vivo. The format is ADME, organism-based.
The target of series [6] is Glutamate receptor ionotropic AMPA (Homo sapiens, UniProt P42261+P42262+P42263+P48058). The experiment in a line: Compound has been evaluated for its binding affinity towards Ionotropic glutamate receptor AMPA by displacing the radioligand [3H]AMPA. The format is protein-complex assay.
Series [7] is filed under the species Mus musculus. Put plainly: Biodistribution of the injected compound in bone of female BALB/C mice for 5 hours. The series is classed as ADME, organism-based, Bone element. The following applies: in vivo.
For series [8], the species on record is Mus musculus. Put plainly: Biodistribution of the injected compound in liver of female BALB/C mice for 2.5 hours. The following applies: in vivo. The series is classed as ADME, organism-based.
For series [9], the species on record is Mus musculus. The experiment in a line: Biodistribution of the injected compound in muscle of female BALB/C mice for 0.5 hours. The series is classed as ADME, organism-based, Muscle tissue. The conditions noted are these: in vivo.
For series [10], the species on record is Mus musculus. Put plainly: Biodistribution of the injected compound in blood of female BALB/C mice for 5 hours. The format is ADME, organism-based. The following applies: in vivo.
The species named for series [11] is Mus musculus. The experiment in a line: Biodistribution of the injected compound in heart of female BALB/C mice for 2.5 hours. The format is ADME, organism-based. The conditions noted are these: in vivo.
Series [12] is filed under the species Mus musculus. The experiment in a line: Biodistribution of the injected compound in bone of female BALB/C mice for 2.5 hours. The series is classed as ADME, organism-based, Bone element. The conditions noted are these: in vivo.
For series [13], the species on record is Mus musculus. Put plainly: Biodistribution of the injected compound in intestines of female BALB/C mice for 2.5 hours. The format is ADME, organism-based, Intestine. The following applies: in vivo.
The species named for series [14] is Mus musculus. The experiment in a line: Biodistribution of the injected compound in brain of female BALB/C mice for 5 hours. The conditions noted are these: in vivo. The series is classed as ADME, organism-based.
The species entered for series [15] is Mus musculus. Put plainly: Biodistribution of the injected compound in lung of female BALB/C mice for 0.5 hours. The series is classed as ADME, organism-based. The following applies: in vivo.
For series [16], the species on record is Mus musculus. The experiment in a line: Biodistribution of the injected compound in blood of female BALB/C mice for 2.5 hours. The conditions noted are these: in vivo. The format is ADME, organism-based.
The species named for series [17] is Mus musculus. Put plainly: Biodistribution of the injected compound in intestines of female BALB/C mice for 0.5 hours. The format is ADME, organism-based, Intestine. The following applies: in vivo.
The species named for series [18] is Mus musculus. Put plainly: Biodistribution of the injected compound in blood of female BALB/C mice for 0.5 hours. The series is classed as ADME, organism-based. The conditions noted are these: in vivo.
The species named for series [19] is Mus musculus. Put plainly: Biodistribution of the injected compound in muscle of female BALB/C mice for 2.5 hours. The format is ADME, organism-based, Muscle tissue. The conditions noted are these: in vivo.
For series [20], the species on record is Mus musculus. Put plainly: Biodistribution of the injected compound in liver of female BALB/C mice for 0.5 hours. The format is ADME, organism-based. The following applies: in vivo.
Series [21] is filed under the species Mus musculus. The experiment in a line: Biodistribution of the injected compound in stomach of female BALB/C mice for 5 hours. The format is ADME, organism-based. The following applies: in vivo.
For series [22], the species on record is Mus musculus. Put plainly: Biodistribution of the injected compound in kidneys of female BALB/C mice for 2.5 hours. The format is ADME, organism-based, Kidney. The conditions noted are these: in vivo.
Series [23] can be described thus: Octanol/water distribution coefficient at pH 7.5. The format is physicochemical.
The species named for series [24] is Mus musculus. Put plainly: Biodistribution of the injected compound in intestines of female BALB/C mice for 5 hours. The series is classed as ADME, organism-based, Intestine. The following applies: in vivo.
The species entered for series [25] is Mus musculus. Put plainly: Biodistribution of the injected compound in spleen of female BALB/C mice for 5 hours. The format is ADME, organism-based. The conditions noted are these: in vivo.
A short description of series [26]: Octanol/water distribution coefficient at pH 7.4. The series is classed as physicochemical.
Series [27] in a line: Octanol/water distribution coefficient at pH 6.5. The format is physicochemical.
For series [28], the species on record is Mus musculus. The experiment in a line: Biodistribution of the injected compound in stomach of female BALB/C mice for 2.5 hours. The series is classed as ADME, organism-based. The following applies: in vivo.
For series [29], the species on record is Mus musculus. Put plainly: Biodistribution of the injected compound in lung of female BALB/C mice for 5 hours. The format is ADME, organism-based. The following applies: in vivo.
For series [30], the species on record is Mus musculus. Put plainly: Biodistribution of the injected compound in spleen of female BALB/C mice for 2.5 hours. The following applies: in vivo. The series is classed as ADME, organism-based.
For series [31], the species on record is Mus musculus. The experiment in a line: Biodistribution of the injected compound in lung of female BALB/C mice for 2.5 hours. The conditions noted are these: in vivo. The series is classed as ADME, organism-based.
The species named for series [32] is Mus musculus. Put plainly: Biodistribution of the injected compound in kidneys of female BALB/C mice for 0.5 hours. The series is classed as ADME, organism-based, Kidney. The following applies: in vivo.
The nature of series [33]: Octanol/water distribution coefficient at pH 4.8. The format is physicochemical.
Series [34] deals with Glutamate [NMDA] receptor. The experiment in a line: Compound has been evaluated for its binding affinity towards N-methyl-D-aspartate glutamate receptor by displacing the radioligand [3H]CGP-39653. The series is classed as protein-complex assay.
Series [35] can be described thus: Octanol/water distribution coefficient at pH 4. The format is physicochemical.
For series [36], the species on record is Mus musculus. Put plainly: Biodistribution of the injected compound in muscle of female BALB/C mice for 5 hours. The format is ADME, organism-based, Muscle tissue. The following applies: in vivo.
The species entered for series [37] is Mus musculus. Put plainly: Biodistribution of the injected compound in brain of female BALB/C mice for 2.5 hours. The series is classed as ADME, organism-based. The conditions noted are these: in vivo.
The species entered for series [38] is Mus musculus. Put plainly: Biodistribution of the injected compound in spleen of female BALB/C mice for 0.5 hours. The format is ADME, organism-based. The following applies: in vivo.
The species named for series [39] is Mus musculus. The experiment in a line: Biodistribution of the injected compound in heart of female BALB/C mice for 5 hours. The format is ADME, organism-based. The conditions noted are these: in vivo.
Series [40] is filed under the species Mus musculus. Put plainly: Biodistribution of the injected compound in heart of female BALB/C mice for 0.5 hours. The format is ADME, organism-based. The following applies: in vivo.
Series [41] is filed under the species Mus musculus. The experiment in a line: Biodistribution of the injected compound in kidneys of female BALB/C mice for 5 hours. The series is classed as ADME, organism-based, Kidney. The conditions noted are these: in vivo.
Series [42] can be described thus: Octanol/water distribution coefficient at pH 5.5. The series is classed as physicochemical.
The species entered for series [43] is Mus musculus. The experiment in a line: Biodistribution of the injected compound in bone of female BALB/C mice for 0.5 hours. The following applies: in vivo. The series is classed as ADME, organism-based, Bone element.
The species entered for series [44] is Mus musculus. The experiment in a line: Biodistribution of the injected compound in brain of female BALB/C mice for 0.5 hours. The conditions noted are these: in vivo. The series is classed as ADME, organism-based.
Series [45] deals with Mus musculus. The experiment in a line: Effective dose of the intravenously administered compound, protecting the mice in the maximal electroshock test. The conditions noted are these: iv. The format is functional.
Series [46] deals with Glutamate receptor ionotropic kainate (Homo sapiens) (UniProt P39086+Q16478+Q16099+Q13002+Q13003). Put plainly: Inhibition of binding of [3H]kainate to kainate at 10 uM compound concentration. The format is protein-complex assay.
Series [47] has as its system Mus musculus. The experiment in a line: Percent protection offered by the compound (10 mg/kg) in maximal electroshock test in mice, 60 min after intravenous administration. The format is functional.
Series [48] addresses Glutamate receptor ionotropic kainate. Put plainly: Compound has been evaluated for its binding affinity towards kainate by displacing the radioligand [3H]kainate. The format is protein-complex assay.

`C[C@@H](NCc1cc(F)cc2[nH]c(=O)c(=O)[nH]c12)P(=O)(O)O` gave an IC50 in [1] of 9 nM. In other words, the single-digit nanomolar range.
Compound `C[C@@H](NCc1cc(C(F)(F)F)cc2[nH]c(=O)c(=O)[nH]c12)P(=O)(O)O` came in with an IC50 in [1] of 8 nM.
Take `C[C@@H](NCc1cc(C#N)cc2[nH]c(=O)c(=O)[nH]c12)P(=O)(O)O`: the IC50 in series [1] amounted to 76 nM.
`C[C@@H](NCc1cc([N+](=O)[O-])cc2[nH]c(=O)c(=O)[nH]c12)[P+]([O-])(O)O` displayed an IC50 in series [1] of 32 nM.
The same measure, in the same setting: with `C[C@@H](NCc1cc(Cl)cc2nc(O)c(O)nc12)P(=O)(O)O` the figure was 6 nM.
For the compound `C[C@@H](NCc1cc(I)cc2[nH]c(=O)c(=O)[nH]c12)P(=O)(O)O`, the Injected dose/g tissue in [2] is given as 0.43%; in series [5] it was 0.58%; in series [7], 0.78%; in series [8] it was 0.49%; in series [9] it was 0.4%; in [10], 0.49%. Also, the Injected dose/g tissue in series [11] worked out at 0.93%; in series [12] it was 0.92%; in series [13], 0.22%; in series [14] it was 0.01%; in series [15] it was 0.96%; in series [16], 0.54%. The Injected dose/g tissue in series [17] stood at 0.44%; in series [18], 1.1%; in series [19], 0.21%; in [20] it was 0.92%; in [21] it was 0.22%; in series [22] it was 3.29%. The Injected dose/g tissue in [24] was determined as 0.2%; in series [25], 0.21%; in series [28], 0.23%; in series [29] it was 0.38%; in series [30], 0.23%; in series [31], 0.4%. Further, the Injected dose/g tissue in series [32] is listed as 6.68%; in series [36] it was 0.19%; in series [37], 0.01%; in series [38], 0.46%; in series [39], 0.82%; in [40], 1.34%. Besides, the Injected dose/g tissue worked out at 2.98% in [41], 1.46% in [43] and 0.03% in series [44]. Also, the logD in series [3] is -0.8; in series [23] it was -1.8; in [26], -2.5; in series [27], -1.7; in [33], -1.5; in series [35] it was -1.2. The logD in series [42] is -1.6. The IC50 in series [4] was over 10000 nM; in [6] it was 340 nM; in series [1], 8 nM; in series [34], over 10000 nM.
Turning to `C[C@@H](NCc1cc(I)cc2nc(O)c(O)nc12)P(=O)(O)O`, in series [45], the median effective dose (ED50) was determined as 10 mg/kg. The compound further registered an inhibition in series [46] of 49%. Besides, the Protection in series [47] is 20%.
`C[C@@H](NCc1cc(Br)cc2nc(O)c(O)nc12)P(=O)(O)O`: the IC50 is over 10000 nM in series [4]; 3000 nM in series [6]; 5 nM in series [1]; 2700 nM in series [48]; over 10000 nM in [34]. The ED50 in series [45] was determined as 5 mg/kg. The compound also showed a Protection in [47] of 60%.
